Laboratory results taken from ChEMBL document CHEMBL1201862, “PubChem BioAssay data set” (2004).
The source made the active and inactive calls.

How the values were obtained:
Troponin, cardiac muscle = Troponin, cardiac muscle (Homo sapiens, UniProt P19429+P45379+P63316); assay: Fluorescence-based biochemical high throughput dose response assay for activators of the calcium sensitivity of cardiac Regulated Thin Filaments (RTF). [Related pubchem assays (depositor defined):AID493008, AID493018, AID504382, AID504383]; assay type: protein-complex assay
[1] = molecular target: T1, High affinity choline transporter 1 (Homo sapiens, UniProt Q9GZV3); assay: human choline transporter blockers, potency – cell-based, 5-point CRC, membrane potential dye, dose response (AID 504840); assay type: functional
T1 sequence (Q9GZV3 whole entry): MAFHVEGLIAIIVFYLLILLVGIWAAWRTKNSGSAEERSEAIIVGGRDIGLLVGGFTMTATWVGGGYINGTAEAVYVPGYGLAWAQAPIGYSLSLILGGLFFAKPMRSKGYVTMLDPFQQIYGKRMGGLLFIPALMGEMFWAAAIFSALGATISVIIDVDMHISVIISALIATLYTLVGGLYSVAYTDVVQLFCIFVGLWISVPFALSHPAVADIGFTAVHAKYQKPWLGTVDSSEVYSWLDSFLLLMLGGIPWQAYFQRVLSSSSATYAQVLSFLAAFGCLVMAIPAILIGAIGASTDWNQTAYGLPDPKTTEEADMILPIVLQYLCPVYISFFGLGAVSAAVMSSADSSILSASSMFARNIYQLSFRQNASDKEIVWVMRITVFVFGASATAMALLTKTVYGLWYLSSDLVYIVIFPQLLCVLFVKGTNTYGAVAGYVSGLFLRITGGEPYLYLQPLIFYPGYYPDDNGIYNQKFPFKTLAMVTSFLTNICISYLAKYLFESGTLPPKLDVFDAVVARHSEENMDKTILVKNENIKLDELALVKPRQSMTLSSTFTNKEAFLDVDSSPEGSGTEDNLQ

Estrogen receptor = molecular target: T2, Estrogen receptor (Homo sapiens, UniProt P03372);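 note: potency for inhibiting coactivator peptide recruitment to the receptor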
T2 sequence (P03372 whole entry): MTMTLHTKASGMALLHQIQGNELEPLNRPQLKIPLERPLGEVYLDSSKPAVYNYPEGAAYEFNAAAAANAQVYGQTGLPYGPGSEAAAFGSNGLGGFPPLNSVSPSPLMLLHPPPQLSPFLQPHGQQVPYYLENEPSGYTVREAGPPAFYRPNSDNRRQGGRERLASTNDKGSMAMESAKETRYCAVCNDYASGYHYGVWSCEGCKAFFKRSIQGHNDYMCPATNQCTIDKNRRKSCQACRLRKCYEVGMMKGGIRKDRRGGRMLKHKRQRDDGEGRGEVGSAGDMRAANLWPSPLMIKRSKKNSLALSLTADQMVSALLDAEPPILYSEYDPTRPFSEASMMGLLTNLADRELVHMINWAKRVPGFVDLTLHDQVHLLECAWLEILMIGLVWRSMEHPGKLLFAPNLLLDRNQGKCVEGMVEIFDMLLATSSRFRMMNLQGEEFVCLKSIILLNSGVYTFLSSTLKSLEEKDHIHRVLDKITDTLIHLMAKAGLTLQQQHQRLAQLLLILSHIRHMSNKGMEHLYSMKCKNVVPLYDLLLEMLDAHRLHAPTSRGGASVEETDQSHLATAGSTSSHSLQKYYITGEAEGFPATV

Estrogen receptor beta [2] = molecular target: T3, Estrogen receptor beta (Homo sapiens, UniProt Q92731);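 note: recombinant ER-beta bound to coactivator SRC1 peptide in presence of estradiol agonist; inhibitors block coactivator peptide binding and lower the FRET signal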
T3 sequence (Q92731 whole entry): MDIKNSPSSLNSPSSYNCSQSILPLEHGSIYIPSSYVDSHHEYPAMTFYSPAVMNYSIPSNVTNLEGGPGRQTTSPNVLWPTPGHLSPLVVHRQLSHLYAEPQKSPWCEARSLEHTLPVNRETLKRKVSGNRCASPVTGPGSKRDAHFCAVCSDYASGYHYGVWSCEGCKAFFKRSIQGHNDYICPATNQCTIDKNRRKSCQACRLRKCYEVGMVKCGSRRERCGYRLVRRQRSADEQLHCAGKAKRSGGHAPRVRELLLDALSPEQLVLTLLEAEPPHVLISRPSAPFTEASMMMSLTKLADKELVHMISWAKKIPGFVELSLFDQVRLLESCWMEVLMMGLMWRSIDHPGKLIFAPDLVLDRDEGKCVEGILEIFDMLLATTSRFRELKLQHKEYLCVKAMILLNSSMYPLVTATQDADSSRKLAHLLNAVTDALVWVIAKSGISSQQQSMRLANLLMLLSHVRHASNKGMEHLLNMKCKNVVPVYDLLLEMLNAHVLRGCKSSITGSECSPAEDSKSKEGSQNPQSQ

Estrogen receptor beta [3] = molecular target: T3, Estrogen receptor beta; assay: blockers of SRC-3 recruitment to ERβ – biochemical, ELISA, streptavidin-HRP readout, orthogonal assay, confirmation (AID 1060)
[4] = molecular target: Voltage-dependent T-type calcium channel subunit alpha-1H (Homo sapiens, UniProt O95180); assay type: functional;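 note: channel activity triggered by adding a high calcium stimulation buffer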
Chain of Voltage-dependent T-type calcium channel subunit alpha-1H (O95180 whole entry): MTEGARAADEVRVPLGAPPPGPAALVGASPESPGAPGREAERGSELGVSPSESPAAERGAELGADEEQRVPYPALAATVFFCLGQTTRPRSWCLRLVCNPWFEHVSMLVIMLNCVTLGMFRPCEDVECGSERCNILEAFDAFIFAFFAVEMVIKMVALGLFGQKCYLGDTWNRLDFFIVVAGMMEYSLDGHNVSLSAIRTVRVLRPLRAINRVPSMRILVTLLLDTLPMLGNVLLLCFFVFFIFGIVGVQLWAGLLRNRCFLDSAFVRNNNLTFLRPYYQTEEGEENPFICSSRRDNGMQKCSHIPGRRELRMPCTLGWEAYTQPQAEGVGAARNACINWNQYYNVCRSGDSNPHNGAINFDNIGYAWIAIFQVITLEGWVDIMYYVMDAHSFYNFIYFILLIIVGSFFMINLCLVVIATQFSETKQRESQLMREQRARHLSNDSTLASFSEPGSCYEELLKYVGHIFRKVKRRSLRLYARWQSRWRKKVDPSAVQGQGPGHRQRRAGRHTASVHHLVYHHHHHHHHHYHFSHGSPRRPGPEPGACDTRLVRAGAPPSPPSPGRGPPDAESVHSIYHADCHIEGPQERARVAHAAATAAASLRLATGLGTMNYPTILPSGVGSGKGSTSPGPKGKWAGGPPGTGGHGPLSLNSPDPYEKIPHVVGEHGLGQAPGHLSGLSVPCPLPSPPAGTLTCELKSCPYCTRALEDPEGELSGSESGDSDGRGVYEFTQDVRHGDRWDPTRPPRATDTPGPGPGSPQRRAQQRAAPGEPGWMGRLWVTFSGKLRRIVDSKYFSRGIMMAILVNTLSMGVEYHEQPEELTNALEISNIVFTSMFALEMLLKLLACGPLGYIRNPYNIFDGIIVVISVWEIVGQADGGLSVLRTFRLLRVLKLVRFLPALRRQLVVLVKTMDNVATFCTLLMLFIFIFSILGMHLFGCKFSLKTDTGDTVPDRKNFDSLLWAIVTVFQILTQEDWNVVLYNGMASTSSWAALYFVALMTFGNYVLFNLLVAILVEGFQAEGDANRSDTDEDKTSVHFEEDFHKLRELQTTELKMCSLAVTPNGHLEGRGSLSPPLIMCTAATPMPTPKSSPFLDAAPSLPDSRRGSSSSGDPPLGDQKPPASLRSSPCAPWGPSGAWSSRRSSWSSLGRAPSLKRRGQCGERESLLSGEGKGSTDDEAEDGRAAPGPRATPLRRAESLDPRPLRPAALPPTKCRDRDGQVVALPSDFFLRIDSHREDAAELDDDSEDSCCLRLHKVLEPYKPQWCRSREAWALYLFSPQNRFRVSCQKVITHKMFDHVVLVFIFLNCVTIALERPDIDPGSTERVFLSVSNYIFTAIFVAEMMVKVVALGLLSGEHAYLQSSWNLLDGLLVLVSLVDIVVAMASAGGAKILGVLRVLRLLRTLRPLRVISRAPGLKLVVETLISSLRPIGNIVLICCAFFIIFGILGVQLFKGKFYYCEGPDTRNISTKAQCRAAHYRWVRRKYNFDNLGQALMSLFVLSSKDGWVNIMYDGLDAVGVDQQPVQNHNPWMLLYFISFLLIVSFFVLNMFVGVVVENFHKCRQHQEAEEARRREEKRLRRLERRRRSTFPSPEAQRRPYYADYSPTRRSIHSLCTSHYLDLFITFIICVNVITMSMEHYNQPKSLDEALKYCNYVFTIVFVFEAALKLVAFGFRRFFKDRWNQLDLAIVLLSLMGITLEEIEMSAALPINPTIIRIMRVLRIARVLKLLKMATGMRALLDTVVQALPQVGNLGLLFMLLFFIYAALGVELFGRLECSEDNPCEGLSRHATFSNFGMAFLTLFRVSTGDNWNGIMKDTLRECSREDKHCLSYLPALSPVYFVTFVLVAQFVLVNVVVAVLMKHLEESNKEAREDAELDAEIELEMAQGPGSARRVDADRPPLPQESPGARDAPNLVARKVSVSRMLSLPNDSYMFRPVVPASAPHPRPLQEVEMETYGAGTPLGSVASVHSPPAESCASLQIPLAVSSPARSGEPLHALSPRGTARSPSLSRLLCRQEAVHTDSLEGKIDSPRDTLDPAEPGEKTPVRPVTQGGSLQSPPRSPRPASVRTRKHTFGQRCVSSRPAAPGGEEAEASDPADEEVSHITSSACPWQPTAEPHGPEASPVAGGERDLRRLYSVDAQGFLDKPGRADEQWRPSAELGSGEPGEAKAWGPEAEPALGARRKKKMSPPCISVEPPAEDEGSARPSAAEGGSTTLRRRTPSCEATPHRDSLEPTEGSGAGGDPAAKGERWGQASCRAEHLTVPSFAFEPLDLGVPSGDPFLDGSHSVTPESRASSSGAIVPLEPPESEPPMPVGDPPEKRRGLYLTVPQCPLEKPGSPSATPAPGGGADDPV

Escherichia coli = assay: microbe, parasite or virus in culture
Large T antigen = Large T antigen (Simian virus 40, UniProt P03070); assay type: functional, Betapolyomavirus macacae;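 note: Confirmatory-stage PubChem screen for compounds that inhibit SV40 T antigen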
Chain of Large T antigen (P03070 whole entry): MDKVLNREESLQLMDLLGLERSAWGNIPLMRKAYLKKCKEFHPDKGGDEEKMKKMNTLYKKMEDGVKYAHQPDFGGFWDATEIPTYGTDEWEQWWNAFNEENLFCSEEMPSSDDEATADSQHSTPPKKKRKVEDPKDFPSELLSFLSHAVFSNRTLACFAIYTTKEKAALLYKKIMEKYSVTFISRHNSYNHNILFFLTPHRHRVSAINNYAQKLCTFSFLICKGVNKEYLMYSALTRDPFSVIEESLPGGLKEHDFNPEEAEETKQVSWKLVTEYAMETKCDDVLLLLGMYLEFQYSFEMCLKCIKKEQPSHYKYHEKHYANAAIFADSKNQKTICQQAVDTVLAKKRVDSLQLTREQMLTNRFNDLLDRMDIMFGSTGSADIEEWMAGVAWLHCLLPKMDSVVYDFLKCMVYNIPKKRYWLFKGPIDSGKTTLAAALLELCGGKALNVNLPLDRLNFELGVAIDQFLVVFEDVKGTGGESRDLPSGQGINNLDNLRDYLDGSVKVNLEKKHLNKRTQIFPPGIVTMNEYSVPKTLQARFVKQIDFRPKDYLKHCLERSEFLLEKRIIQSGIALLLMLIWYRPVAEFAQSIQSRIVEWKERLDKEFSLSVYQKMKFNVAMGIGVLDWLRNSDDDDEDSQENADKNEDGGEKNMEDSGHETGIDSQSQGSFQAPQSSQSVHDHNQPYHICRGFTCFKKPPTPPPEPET

[5] = molecular target: DNA dC->dU-editing enzyme APOBEC-3A (Homo sapiens, UniProt P31941); assay: A3A deaminase inhibition for selectivity – biochemical, dose response (AID 504722); assay type: functional
Chain of DNA dC->dU-editing enzyme APOBEC-3A (P31941 whole entry): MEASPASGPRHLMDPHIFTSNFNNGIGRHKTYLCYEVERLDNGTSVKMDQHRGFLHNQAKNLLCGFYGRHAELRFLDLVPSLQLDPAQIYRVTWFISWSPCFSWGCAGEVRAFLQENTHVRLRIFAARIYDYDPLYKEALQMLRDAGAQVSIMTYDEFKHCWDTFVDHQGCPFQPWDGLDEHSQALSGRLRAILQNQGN

[6] = molecular target: DNA dC->dU-editing enzyme APOBEC-3G (Homo sapiens, UniProt Q9HC16); assay: Dose Response confirmation of small molecule APOBEC3G DNA Deaminase Inhibitors via a fluorescence-based single-stranded DNA deaminase assay. [Related pubchem assays (depositor defined):AID493012, AID493028]; assay type: functional
Chain of DNA dC->dU-editing enzyme APOBEC-3G (Q9HC16 whole entry): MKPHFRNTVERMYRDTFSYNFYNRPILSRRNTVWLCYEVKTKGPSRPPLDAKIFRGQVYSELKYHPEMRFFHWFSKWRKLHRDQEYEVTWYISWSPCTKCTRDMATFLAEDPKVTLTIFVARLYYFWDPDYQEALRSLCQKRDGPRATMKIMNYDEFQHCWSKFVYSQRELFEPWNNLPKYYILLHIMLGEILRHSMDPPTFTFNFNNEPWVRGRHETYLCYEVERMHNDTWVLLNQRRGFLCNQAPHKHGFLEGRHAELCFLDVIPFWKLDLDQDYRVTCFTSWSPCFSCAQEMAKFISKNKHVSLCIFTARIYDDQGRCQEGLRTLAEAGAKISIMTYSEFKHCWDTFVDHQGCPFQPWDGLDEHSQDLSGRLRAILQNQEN

[7] = molecular target: T4, Heat shock factor protein 1 (Mus musculus, UniProt P38532); assay: decrease of HSF1-responsive luciferase luminescence – cell-based, NIH3T3, dose retest, confirmation (AID 2382); assay type: functional;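 note: NIH3T3 fibroblasts with HSF1-driven luciferase reporter stressed by proteasome inhibitor MG132; luminescence from HSF1-driven luciferase expression after 8 hours of MG132 stress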
T4 sequence (P38532 whole entry): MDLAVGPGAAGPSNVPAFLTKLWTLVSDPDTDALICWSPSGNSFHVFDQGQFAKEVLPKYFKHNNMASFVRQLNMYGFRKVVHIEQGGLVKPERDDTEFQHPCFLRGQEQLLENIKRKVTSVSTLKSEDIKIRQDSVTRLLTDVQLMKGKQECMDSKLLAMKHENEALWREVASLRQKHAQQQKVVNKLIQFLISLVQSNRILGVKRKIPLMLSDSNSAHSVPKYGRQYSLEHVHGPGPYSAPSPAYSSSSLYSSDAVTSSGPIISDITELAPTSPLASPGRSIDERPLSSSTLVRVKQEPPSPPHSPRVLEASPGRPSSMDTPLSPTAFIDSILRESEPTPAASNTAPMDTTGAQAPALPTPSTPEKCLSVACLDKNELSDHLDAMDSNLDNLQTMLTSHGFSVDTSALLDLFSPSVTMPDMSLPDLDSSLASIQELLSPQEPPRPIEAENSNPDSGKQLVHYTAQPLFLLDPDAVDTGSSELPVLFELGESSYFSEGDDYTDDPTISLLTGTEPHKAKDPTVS

[8] = molecular target: T5, Acyl-homoserine lactone acylase PvdQ (Pseudomonas aeruginosa (strain LESB58), UniProt Q9I194); assay: PvdQ acylase enzyme activity blockers – biochemical, fluorescence, plate reader and imaging, cherry-picks, dose response (AID 493231)
T5 sequence (Q9I194 whole entry): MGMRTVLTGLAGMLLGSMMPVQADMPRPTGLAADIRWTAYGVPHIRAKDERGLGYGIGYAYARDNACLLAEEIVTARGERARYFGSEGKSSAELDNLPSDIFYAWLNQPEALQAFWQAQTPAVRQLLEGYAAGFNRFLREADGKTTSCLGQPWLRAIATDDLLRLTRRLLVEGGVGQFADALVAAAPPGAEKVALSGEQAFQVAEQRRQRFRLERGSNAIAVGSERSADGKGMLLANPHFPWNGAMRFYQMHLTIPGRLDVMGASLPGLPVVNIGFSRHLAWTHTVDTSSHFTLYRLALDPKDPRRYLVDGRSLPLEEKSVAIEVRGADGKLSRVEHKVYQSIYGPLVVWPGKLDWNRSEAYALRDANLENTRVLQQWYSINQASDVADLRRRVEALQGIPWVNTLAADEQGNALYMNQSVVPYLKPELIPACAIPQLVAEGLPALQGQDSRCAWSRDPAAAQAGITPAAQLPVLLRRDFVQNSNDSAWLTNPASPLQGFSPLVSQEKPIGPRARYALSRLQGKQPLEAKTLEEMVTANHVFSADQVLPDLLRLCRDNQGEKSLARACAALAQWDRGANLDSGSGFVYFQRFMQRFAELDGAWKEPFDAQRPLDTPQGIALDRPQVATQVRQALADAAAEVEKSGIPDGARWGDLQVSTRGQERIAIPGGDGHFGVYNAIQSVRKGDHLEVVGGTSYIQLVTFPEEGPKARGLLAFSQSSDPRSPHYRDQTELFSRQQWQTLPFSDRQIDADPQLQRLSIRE

[9] = molecular target: T6, Short transient receptor potential channel 4 (Mus musculus, UniProt Q9QUQ5); assay: calcium entry via TRPC4 opening agents – cell-based, HEK293 TRPC4/mu-opioid, Fluo-4 calcium, dose response (AID 434937); assay type: functional
T6 sequence (Q9QUQ5 whole entry): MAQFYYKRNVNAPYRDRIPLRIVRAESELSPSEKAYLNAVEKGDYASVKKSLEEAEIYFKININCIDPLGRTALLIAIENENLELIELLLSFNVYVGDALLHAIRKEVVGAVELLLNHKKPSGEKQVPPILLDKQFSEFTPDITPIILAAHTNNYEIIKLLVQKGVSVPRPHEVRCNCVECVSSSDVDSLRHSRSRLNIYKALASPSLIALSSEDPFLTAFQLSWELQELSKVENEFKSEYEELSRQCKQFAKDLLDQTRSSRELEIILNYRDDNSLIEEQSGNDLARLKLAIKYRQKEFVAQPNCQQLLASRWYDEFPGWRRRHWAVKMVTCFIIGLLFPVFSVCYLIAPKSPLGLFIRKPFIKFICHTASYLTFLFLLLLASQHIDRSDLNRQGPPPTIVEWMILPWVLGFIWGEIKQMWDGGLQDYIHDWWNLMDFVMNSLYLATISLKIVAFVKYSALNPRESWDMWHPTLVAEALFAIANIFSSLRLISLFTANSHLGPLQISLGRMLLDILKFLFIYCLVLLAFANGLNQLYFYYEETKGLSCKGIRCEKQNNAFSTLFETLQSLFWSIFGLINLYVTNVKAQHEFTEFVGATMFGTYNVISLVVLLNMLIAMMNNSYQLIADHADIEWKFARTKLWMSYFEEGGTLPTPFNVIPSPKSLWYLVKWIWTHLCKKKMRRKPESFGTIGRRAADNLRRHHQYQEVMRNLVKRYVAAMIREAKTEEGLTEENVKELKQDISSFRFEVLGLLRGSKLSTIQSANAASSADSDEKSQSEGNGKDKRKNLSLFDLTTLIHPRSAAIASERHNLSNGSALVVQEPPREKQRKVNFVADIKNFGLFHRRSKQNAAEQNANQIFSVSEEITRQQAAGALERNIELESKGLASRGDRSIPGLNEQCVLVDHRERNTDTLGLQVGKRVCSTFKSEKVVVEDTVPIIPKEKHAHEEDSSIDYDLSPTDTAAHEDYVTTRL

[10] = molecular target: FAD-linked sulfhydryl oxidase ALR (Homo sapiens, UniProt P55789); assay: ALR-catalysed DTT oxidation blockers – biochemical, H2O2 detection, luminescence, cherry-pick, dose response (AID 493248)
Chain of FAD-linked sulfhydryl oxidase ALR (P55789 whole entry): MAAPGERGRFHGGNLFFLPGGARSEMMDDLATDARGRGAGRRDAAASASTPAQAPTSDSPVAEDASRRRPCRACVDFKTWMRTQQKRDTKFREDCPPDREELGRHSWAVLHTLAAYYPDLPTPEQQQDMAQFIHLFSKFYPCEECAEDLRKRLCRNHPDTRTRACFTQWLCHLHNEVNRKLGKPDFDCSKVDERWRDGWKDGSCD

[11] = viability of PTEN-deleted HCT116 cells – cell-based, HCT116 PTEN knockout, dose response (AID 1047); assay type: functional;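 note: HCT116 colon tumor cells with PTEN knocked out; cells exposed to compound for 60 hours before readout; potency for loss of cell viability measured by luminescence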
[12] = viability of HCT116 lacking mutant beta-catenin – cell-based, human colon tumor, dose response (AID 1045); assay type: functional;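 note: HCT116 colon tumor cells with beta catenin knocked out; cells exposed to compound for 60 hours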

O=C(c1cnc2ccccc2n1)N1CCN(c2ccc(C(F)(F)F)cn2)CC1
EC50 (Troponin, cardiac muscle): > 71.4 µM (inactive)

Cc1c(NC(=O)CSc2nnc(C(C)Oc3ccc(Cl)cc3)n2-c2ccccc2)c(=O)n(-c2ccccc2)n1C (stereo unspecified)
IC50 [1]: 13.8 µM (active)

COc1ccc(NC2=NC(=O)S/C2=C\c2ccc(N(C)C)cc2)cc1
IC50 (Estrogen receptor): 33.3 µM (not active)
IC50 (Estrogen receptor beta [2]): 12.7 µM (active)
IC50 (Estrogen receptor beta [3]): 85.5 µM (not active)
EC50 (Troponin, cardiac muscle): 2.02 µM (active)

C=CCc1ccc(OCC(O)CN2CCC(Cc3ccccc3)CC2)c(OC)c1 (stereo unspecified)
EC50 [4]: 6.13 µM (active)
IC50 [1]: 19.1 µM (active)

COc1ccc2c(c1)c(C(O)CN1CCC(Cc3ccccc3)CC1)c(C)n2C (stereo unspecified)
AC50 (Escherichia coli): 73.6 µM (active)

O=C(Cn1cnc2c(cnn2-c2ccccc2)c1=O)Nc1ccc(S(=O)(=O)N2CCOCC2)cc1
EC50 (Troponin, cardiac muscle): > 71.5 µM (inactive)

O=c1c2c3c(sc2n2c(S)nnc2n1-c1ccccc1)CCC3
IC50 (Large T antigen): 30.4 µM (active)
IC50 [5]: > 100 µM (inactive)
IC50 [6]: 3.72 µM (active)

CCOC(=O)CSc1cc(CS(C)(=O)=O)nc(-c2ccccn2)n1
EC50 [7]: > 195 µM (not active)
AC50 (Escherichia coli): 56.8 µM (active)

O=[N+]([O-])c1ccc(N2CCCC2)nc1
AC50 [8]: 5.4 µM (active)

COc1ccc2[nH]c(SCCN(C)C)nc2c1
EC50 [9]: 0.149 µM (active)

Fc1cccc(C2NCCc3[nH]cnc32)c1 (stereo unspecified)
EC50 [9]: 3.76 µM (active)

Cn1c(S)nnc1-c1sc2ccccc2c1Cl
IC50 [5]: > 100 µM (inactive)
IC50 [6]: 0.936 µM (active)
AC50 [10]: 12 µM (active)
IC50 [1]: 8.32 µM (active)

COc1c(C)cc(C(=O)C2CCCN(Cc3cccc4nccnc34)C2)cc1C (stereo unspecified)
EC50 [9]: 3.35 µM (active)

N=c1n(Cc2ccccc2)c2ccccc2n1CC(O)COc1ccccc1 (stereo unspecified)
EC50 [11]: 9.02 µM (active)
EC50 [12]: 6.96 µM (active)
EC50 [4]: 2.6 µM (active)
EC50 [9]: 0.267 µM (active)
IC50 [1]: 9.78 µM (active)

Cn1cccc1C(C#N)c1cccc(F)c1C#N (stereo unspecified)
AC50 [8]: 4.57 µM (active)

O=C(/C=C/c1cccs1)c1cc(Cl)ccc1O
AC50 [8]: 4.67 µM (active)

CCCNS(=O)(=O)c1ccc(OC)c(Cl)c1Cl
AC50 [8]: 8.91 µM (active)
